Experimental data from US12371454B2, “Cyclic peptide compound having Kras inhibitory action” (priority 2019, dated 2025).
Positions of bridges follow the written chain, without caps; N, C: chain ends. Non-standard residues stand in square brackets, D forms with d. Residues, ends and D or L forms follow the SMILES beside them. *: point of attachment. hPhe(3-Cl-4-CF3) = N[C@@H](CCc1ccc(C(F)(F)F)c(Cl)c1)C(=O)O; NMePhe(4-Cl) = CN[C@@H](Cc1ccc(Cl)cc1)C(=O)O; NMePhe(4-Me) = CN[C@@H](Cc1ccc(C)cc1)C(=O)O; NMePhe(4-F) = CN[C@@H](Cc1ccc(F)cc1)C(=O)O; NMeGly(cPent) = CN[C@H](C(=O)O)C1CCCC1; Phe(3-I) = N[C@@H](Cc1cccc(I)c1)C(=O)O; NMeCha = CN[C@@H](CC1CCCCC1)C(=O)O; Hyp = O=C(O)[C@@H]1C[C@@H](O)CN1; NMeChg = CN[C@H](C(=O)O)C1CCCCC1; NMeF = CN[C@@H](Cc1ccccc1)C(=O)O; NMeI = CC[C@H](C)[C@H](NC)C(=O)O; dNMeF = CN[C@H](Cc1ccccc1)C(=O)O; hPhe = N[C@@H](CCc1ccccc1)C(=O)O; NMeD = CN[C@@H](CC(=O)O)C(=O)O; AllylGly = C=CC[C@H](N)C(=O)O; NMeL = CN[C@@H](CC(C)C)C(=O)O; NMeV = CN[C@H](C(=O)O)C(C)C; d(β3hA) = C[C@@H](N)CC(=O)O; NMeA = CN[C@@H](C)C(=O)O; NMeAib = CNC(C)(C)C(=O)O; Nle = CCCC[C@H](N)C(=O)O; Piperidide = C1CCN(*)CC1; Pra = C#CC[C@H](N)C(=O)O; Pyrrolidide = C1CCN(*)C1; dNMeA = CN[C@H](C)C(=O)O; Ac5c = NC1(C(=O)O)CCCC1; Aze = O=C(O)[C@@H]1CCN1; X24 = c1cncc(C*)c1; Sar = CNCC(=O)O

Target: T1, Kras and SOS1 (biotin-tagged human Kras loaded with GDP, His-tagged human SOS1) (Homo sapiens, UniProt P01116, G12D)
T1 construct: made in house; host or cells: E. coli (stated for Kras only)
Test: Protein-protein interaction inhibition between Kras and SOS1 (KrasGl2D-SOS PPI) using AlphaScreen
Assay type: binding
Settings: AlphaScreen; biotin-tagged human Kras loaded with GDP, His-tagged human SOS1; read-out: KRAS G12D-SOS PPI IC50
Procedure, shortened: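 Binding between SOS1 and Kras is detected as bead-proximity luminescence: illuminate Ni-conjugated donors (680 nm), collect 520-620 nm emission from streptavidin-conjugated acceptors; Kras carries biotin and GDP loaded after purification, SOS1 carries a His tag.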

T1 sequence (P01116 1-188 isoform P01116-2 G12D): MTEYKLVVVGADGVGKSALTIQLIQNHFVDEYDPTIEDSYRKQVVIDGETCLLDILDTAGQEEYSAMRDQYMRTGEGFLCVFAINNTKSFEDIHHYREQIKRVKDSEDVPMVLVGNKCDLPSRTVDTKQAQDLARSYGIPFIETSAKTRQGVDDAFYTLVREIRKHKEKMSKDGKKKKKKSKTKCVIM

Compared with `CCCC[C@@H]1NC(=O)[C@H](Cc2cccc(I)c2)NC(=O)CN(C)C(=O)[C@H](Cc2ccc(Cl)cc2)N(C)C(=O)CN(C)C(=O)CN(C)C(=O)[C@H]([C@@H](C)CC)NC(=O)[C@H](CC(C)C)N(C)C(=O)C[C@@H](C(=O)N2CCCC2)N(C)C(=O)[C@H](CCc2ccccc2)NC(=O)C(C)(C)N(C)C1=O` [Compound 1430] ([NMeL]I[Sar][Sar][NMePhe(4-Cl)][Sar][Phe(3-I)][Nle][NMeAib][hPhe][NMeD]-Pyrrolidide; lactam N-11), `C=CC[C@@H]1NC(=O)[C@H](Cc2cccc(I)c2)NC(=O)CN(C)C(=O)[C@H](Cc2ccc(Cl)cc2)N(C)C(=O)CN(C)C(=O)CN(C)C(=O)[C@H]([C@@H](C)CC)NC(=O)[C@H](CC(C)C)N(C)C(=O)C[C@@H](C(=O)N2CCCC2)N(C)C(=O)[C@H](CC(C)C)NC(=O)C(C)(C)N(C)C1=O` [Compound 1431] ([NMeL]I[Sar][Sar][NMePhe(4-Cl)][Sar][Phe(3-I)][AllylGly][NMeAib]L[NMeD]-Pyrrolidide; lactam N-11) is 1.8-fold lower in IC50: 400 nM for the first, 220 nM for the second.

Compared with `C#CC[C@@H]1NC(=O)[C@H](Cc2cccc(I)c2)NC(=O)CN(C)C(=O)[C@H](Cc2ccccc2)N(C)C(=O)CN(C)C(=O)CN(C)C(=O)[C@H]([C@@H](C)CC)NC(=O)[C@H](CC(C)C)N(C)C(=O)C[C@@H](C(=O)N2CCCCC2)N(C)C(=O)[C@H](CC(C)C)NC(=O)C(C)(C)N(C)C1=O` [Compound 1184] ([NMeL]I[Sar][Sar][NMeF][Sar][Phe(3-I)][Pra][NMeAib]L[NMeD]-Piperidide; lactam N-11), `CC[C@H](C)[C@@H]1NC(=O)[C@H](CC(C)C)N(C)C(=O)C[C@@H](C(=O)N2CCCCC2)N(C)C(=O)[C@H]([C@@H](C)CC)N(C)C(=O)C2(CCCC2)NC(=O)[C@@H]2CCCN2C(=O)[C@H](CCc2ccc(C(F)(F)F)c(Cl)c2)NC(=O)CN(C)C(=O)[C@H](Cc2ccc(C)cc2)N(C)C(=O)CN(C)C(=O)CN(C)C1=O` [Compound 1649] ([NMeL]I[Sar][Sar][NMePhe(4-Me)][Sar][hPhe(3-Cl-4-CF3)]P[Ac5c][NMeI][NMeD]-Piperidide; lactam N-11) is 310-fold lower in IC50: 130 nM for the first, 0.42 nM for the second. The second is the more potent here.

Compared with `CC[C@H](C)[C@@H]1NC(=O)[C@H](C)N(C)C(=O)C[C@@H](C)NC(=O)[C@H](C2CCCC2)N(C)C(=O)C2(CCCC2)NC(=O)[C@@H]2CCCN2C(=O)[C@H](CCc2ccc(C(F)(F)F)c(Cl)c2)NC(=O)[C@@H](C)N(C)C(=O)[C@H](Cc2ccc(F)cc2)N(C)C(=O)CN(C)C(=O)CN(C)C1=O` [Compound 206] (cyclo([Ac5c][NMeGly(cPent)][d(β3hA)][NMeA]I[Sar][Sar][NMePhe(4-F)][dNMeA][hPhe(3-Cl-4-CF3)]P)), `CC[C@H](C)[C@@H]1NC(=O)[C@H](C)N(C)C(=O)C[C@@H](C)NC(=O)[C@H](C2CCCC2)N(C)C(=O)C2(CCCC2)NC(=O)[C@@H]2CCCN2C(=O)[C@H](CCc2ccc(C(F)(F)F)c(Cl)c2)NC(=O)[C@@H](C)N(C)C(=O)[C@H](Cc2ccc(F)cc2)N(C)C(=O)[C@@H]2CCN2C(=O)[C@H](C)N(C)C1=O` [Compound 584] (cyclo([Ac5c][NMeGly(cPent)][d(β3hA)][NMeA]I[NMeA][Aze][NMePhe(4-F)][dNMeA][hPhe(3-Cl-4-CF3)]P)) is 3.5-fold lower in IC50: 110 nM for the first, 31 nM for the second. The second is the more potent here.

`CC[C@H](C)[C@@H]1NC(=O)[C@H](CC(C)C)N(C)C(=O)C[C@@H](C(=O)N2CCCCC2)N(C)C(=O)[C@H](C(C)C)N(C)C(=O)C2(CCCC2)NC(=O)[C@@H](Cc2ccccc2)N(C)C(=O)[C@H](CCc2ccc(C(F)(F)F)c(Cl)c2)NC(=O)CN(C)C(=O)[C@H](CC2CCCCC2)N(C)C(=O)[C@@H]2CCN2C(=O)[C@H](C)N(C)C1=O` [Compound 1442] ([NMeL]I[NMeA][Aze][NMeCha][Sar][hPhe(3-Cl-4-CF3)][dNMeF][Ac5c][NMeV][NMeD]-Piperidide; lactam N-11) gave an IC50 of 280 nM.

System: Human pancreatic cancer cell line AsPC-1
Test: Measurement of AsPC-1 cell growth inhibition (AsPC-1 CGI)
Assay type: cell-based
Settings: 96 h
Method: Measurement of AsPC-1 Cell Growth Inhibition (AsPC-1 CGI)
Test compounds were serially diluted with dimethyl sulfoxide, and 200 nL was then dispensed to a U-bottom 96-well plate using Labcyte Echo. Human pancreatic cancer cell line AsPC-1 was suspended in RPMI-1640 medium supplemented with 15% fetal bovine serum to prepare a cell suspension at 1000 cells/100 μL. The cell suspension was dispensed to a plate containing a test compound at 100 μL per well and incubated at 37° C. in a 5% carbon dioxide gas incubator. 96 hours later, 80 μL of CellTiter-Glo (Promega) was added to each well and […] was measured.

`CC[C@H](C)[C@@H]1NC(=O)[C@H](CC(C)C)N(C)C(=O)C[C@@H](C(=O)N2CCCCC2)N(C)C(=O)[C@H](C2CCCCC2)N(C)C(=O)C2(CCCC2)NC(=O)[C@@H]2C[C@@H](OCc3cccnc3)CN2C(=O)[C@H](CCc2ccc(C(F)(F)F)c(Cl)c2)NC(=O)CN(C)C(=O)[C@H](CC2CCCCC2)N(C)C(=O)CN(C)C(=O)CN(C)C1=O` [Compound 2121] ([NMeL]I[Sar][Sar][NMeCha][Sar][hPhe(3-Cl-4-CF3)][Hyp](X24)[Ac5c][NMeChg][NMeD]-Piperidide; lactam N-11) gave an IC50 of 50 to 100 nM.
